Results from article PMC11879040, “Advancing systemic toxicity risk assessment: Evaluation of a NAM-based toolbox approach” (Toxicological Sciences, 2024).
Like-named read-outs stand apart in the source and are kept apart here.

What was measured:
[1] = target: T1, Monoamine oxidase type A, MAOA (r) (Rattus norvegicus, UniProt P21396); experiment: IPP MAOA binding (antagonist radioligand); settings: IPP screening at 10 uM; control clorgyline
T1 sequence (P21396 1-526): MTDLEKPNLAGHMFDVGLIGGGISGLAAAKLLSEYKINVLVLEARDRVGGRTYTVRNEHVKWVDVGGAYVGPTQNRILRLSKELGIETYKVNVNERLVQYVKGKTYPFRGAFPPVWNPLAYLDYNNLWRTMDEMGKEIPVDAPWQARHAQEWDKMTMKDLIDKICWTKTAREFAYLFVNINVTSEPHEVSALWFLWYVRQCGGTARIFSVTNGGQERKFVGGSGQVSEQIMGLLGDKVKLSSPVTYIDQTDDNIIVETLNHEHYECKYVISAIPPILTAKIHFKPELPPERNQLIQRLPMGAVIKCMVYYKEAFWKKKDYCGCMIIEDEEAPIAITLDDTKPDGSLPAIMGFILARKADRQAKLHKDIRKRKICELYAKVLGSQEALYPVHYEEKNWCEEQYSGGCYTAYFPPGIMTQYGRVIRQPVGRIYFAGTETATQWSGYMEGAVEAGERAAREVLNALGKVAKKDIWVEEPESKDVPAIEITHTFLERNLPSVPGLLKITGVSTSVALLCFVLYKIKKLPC

[2] = target: T2, Adenosine receptor A2a, ADORA2A (h) (Homo sapiens, UniProt P29274); experiment: IPP ADORA2A binding (agonist radioligand); settings: control NECA
T2 construct: purchased Eurofins Cerep (SafetyScreen44-based IPP panel)
T2 sequence (P29274 whole entry): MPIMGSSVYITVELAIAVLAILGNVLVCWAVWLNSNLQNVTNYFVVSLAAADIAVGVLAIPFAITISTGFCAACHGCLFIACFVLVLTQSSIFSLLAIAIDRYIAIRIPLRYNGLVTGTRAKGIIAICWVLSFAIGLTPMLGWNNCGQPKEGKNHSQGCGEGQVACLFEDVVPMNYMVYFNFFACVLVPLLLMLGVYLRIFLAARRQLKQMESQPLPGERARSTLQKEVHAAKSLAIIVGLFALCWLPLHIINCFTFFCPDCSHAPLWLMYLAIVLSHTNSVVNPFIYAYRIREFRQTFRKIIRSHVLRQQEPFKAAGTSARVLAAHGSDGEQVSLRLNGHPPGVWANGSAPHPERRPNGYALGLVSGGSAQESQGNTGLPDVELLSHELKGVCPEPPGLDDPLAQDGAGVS

[3] = target: Sodium-dependent serotonin transporter, SLC6A4 (h) (Homo sapiens, UniProt P31645); format: binding; settings: control imipramine
[4] = target: T3, Muscarinic acetylcholine receptor M3, CHRM3 (h) (Homo sapiens, UniProt P20309); format: binding; settings: 10 uM; ligand/control 4-DAMP
T3 construct: purchased Eurofins Cerep (SafetyScreen44-based IPP panel)
T3 sequence (P20309 whole entry): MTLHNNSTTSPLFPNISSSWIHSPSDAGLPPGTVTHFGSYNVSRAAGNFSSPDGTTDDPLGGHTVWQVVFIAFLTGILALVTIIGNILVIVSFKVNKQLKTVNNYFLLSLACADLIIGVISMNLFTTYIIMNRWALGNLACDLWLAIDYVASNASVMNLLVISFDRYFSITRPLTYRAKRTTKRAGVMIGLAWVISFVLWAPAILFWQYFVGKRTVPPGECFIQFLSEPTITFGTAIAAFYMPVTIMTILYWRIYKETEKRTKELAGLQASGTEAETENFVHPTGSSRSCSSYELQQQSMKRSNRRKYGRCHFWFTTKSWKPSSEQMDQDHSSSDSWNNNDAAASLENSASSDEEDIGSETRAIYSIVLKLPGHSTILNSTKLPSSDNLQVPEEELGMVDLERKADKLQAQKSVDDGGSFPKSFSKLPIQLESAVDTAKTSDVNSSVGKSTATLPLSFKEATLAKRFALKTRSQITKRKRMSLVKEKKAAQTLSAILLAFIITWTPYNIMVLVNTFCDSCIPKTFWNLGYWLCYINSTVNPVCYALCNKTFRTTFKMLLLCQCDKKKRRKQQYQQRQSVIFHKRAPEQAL

[5] = target: Carbonic anhydrase II, CA2 (h) (Homo sapiens, UniProt P00918); experiment: IPP CA2 enzymatic activity; format: biochemical; settings: 10 uM; control acetazolamide
[6] = test system: 63 targets with known safety liabilities; experiment: In vitro pharmacological profiling (IPP) panel, screening at 10 or 100 µM and dose response, minimum IC50/AC50; format: biochemical; settings: lowest AC50 across IPP panel (systemic targets); cell_type -; read-out: ipp_lowest_ac50_systemic PoD
[7] = target: Kappa-type opioid receptor OPRK1 (h) (Homo sapiens, UniProt P41145); settings: control U 50488
Chain of Kappa-type opioid receptor OPRK1 (h) (P41145 whole entry): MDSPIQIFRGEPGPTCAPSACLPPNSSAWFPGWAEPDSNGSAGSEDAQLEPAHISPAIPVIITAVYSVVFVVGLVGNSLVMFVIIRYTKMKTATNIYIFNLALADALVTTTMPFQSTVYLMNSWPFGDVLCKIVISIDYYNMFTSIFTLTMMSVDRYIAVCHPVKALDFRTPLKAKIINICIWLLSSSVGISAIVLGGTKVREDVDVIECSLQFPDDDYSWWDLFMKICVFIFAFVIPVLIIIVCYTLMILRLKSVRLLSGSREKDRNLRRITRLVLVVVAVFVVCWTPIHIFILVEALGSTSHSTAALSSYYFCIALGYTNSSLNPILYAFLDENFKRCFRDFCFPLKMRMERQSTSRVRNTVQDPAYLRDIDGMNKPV

[8] = target: T4, Alpha-2A adrenergic receptor, ADRA2A (h) (Homo sapiens, UniProt P08913); settings: control yohimbine
T4 sequence (P08913 1-465): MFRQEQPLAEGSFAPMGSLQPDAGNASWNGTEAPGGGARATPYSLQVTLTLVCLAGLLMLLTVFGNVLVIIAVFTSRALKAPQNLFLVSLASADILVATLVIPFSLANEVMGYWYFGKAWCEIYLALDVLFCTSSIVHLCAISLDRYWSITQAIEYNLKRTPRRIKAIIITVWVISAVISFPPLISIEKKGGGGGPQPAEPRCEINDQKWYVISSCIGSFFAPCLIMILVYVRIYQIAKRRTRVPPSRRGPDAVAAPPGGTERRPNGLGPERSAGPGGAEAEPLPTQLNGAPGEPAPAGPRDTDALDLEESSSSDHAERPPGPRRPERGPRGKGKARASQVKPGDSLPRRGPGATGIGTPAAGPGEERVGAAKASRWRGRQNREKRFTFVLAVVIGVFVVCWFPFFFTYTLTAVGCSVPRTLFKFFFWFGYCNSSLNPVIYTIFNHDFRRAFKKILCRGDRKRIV

[9] = target: Beta-1 adrenergic receptor, ADRB1 (h) (Homo sapiens, UniProt P08588); settings: control atenolol
Chain of Beta-1 adrenergic receptor, ADRB1 (h) (P08588 whole entry): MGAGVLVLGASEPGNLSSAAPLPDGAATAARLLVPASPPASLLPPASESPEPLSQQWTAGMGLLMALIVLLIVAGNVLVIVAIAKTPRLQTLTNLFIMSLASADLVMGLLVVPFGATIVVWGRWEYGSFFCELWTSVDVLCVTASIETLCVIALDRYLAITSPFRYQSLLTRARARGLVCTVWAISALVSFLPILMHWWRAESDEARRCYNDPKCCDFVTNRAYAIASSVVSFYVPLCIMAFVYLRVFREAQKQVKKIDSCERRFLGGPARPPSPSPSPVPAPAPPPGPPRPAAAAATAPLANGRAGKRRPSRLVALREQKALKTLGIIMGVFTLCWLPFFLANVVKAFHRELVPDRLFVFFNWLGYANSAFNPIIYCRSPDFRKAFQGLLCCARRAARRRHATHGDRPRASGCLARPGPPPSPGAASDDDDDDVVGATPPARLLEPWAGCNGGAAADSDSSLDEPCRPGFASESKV

[10] = target: Dopamine receptor D1, DRD1 (h) (Homo sapiens, UniProt P21728); settings: control SCH 23390
[11] = target: Neuronal acetylcholine receptor subunit alpha-4, CHRNA4 (h) (Homo sapiens, UniProt P17787+P43681); settings: control nicotine
Chain of Neuronal acetylcholine receptor subunit alpha-4, CHRNA4 (h) (P43681 29-627 limits assumed): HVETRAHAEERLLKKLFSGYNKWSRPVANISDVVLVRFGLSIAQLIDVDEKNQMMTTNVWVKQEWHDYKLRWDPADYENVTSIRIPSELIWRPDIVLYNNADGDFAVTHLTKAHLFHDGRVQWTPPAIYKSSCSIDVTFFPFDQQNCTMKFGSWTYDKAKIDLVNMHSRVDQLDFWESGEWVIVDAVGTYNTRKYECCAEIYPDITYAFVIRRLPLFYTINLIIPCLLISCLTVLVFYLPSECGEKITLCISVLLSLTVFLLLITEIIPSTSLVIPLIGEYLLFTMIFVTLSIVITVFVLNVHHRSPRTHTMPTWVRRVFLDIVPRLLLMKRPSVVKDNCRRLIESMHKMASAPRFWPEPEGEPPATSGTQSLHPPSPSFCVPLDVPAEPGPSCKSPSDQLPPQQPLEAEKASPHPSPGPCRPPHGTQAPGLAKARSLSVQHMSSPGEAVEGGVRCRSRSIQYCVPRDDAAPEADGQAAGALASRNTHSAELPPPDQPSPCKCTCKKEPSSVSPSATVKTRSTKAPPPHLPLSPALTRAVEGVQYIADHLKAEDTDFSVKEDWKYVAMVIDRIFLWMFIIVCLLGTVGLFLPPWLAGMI
Chain of Neuronal acetylcholine receptor subunit alpha-4, CHRNA4 (h) (P17787 26-502): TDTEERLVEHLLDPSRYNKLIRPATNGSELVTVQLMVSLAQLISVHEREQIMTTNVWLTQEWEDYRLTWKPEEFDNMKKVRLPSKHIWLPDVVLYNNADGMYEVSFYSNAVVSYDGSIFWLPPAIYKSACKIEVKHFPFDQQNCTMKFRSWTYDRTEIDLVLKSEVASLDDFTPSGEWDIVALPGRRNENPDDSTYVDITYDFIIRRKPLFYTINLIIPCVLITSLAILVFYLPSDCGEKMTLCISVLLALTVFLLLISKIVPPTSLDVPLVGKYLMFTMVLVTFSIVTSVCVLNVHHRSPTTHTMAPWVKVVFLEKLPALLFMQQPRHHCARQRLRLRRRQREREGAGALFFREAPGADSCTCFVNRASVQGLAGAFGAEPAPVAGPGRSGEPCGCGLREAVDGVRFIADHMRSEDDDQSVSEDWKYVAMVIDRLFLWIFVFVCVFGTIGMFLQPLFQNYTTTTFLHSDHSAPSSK

[12] = target: T5, 5-hydroxytryptamine receptor 3A, HTR3A (h) (Homo sapiens, UniProt P46098); settings: control MDL 72222
T5 sequence (P46098 24-478): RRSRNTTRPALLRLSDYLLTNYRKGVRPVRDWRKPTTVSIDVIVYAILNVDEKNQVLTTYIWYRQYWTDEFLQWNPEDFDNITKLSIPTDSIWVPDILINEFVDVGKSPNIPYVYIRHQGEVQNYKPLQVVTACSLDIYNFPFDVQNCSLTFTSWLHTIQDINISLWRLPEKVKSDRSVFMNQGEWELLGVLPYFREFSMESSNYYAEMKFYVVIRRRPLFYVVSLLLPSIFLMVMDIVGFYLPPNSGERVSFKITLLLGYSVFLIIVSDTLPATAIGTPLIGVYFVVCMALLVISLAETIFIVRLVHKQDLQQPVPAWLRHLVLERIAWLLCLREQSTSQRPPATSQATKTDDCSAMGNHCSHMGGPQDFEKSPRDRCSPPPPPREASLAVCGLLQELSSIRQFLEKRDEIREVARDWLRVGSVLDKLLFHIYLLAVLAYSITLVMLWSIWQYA

[13] = target: 5-hydroxytryptamine receptor 2B, HTR2B (h) (Homo sapiens, UniProt P41595)
Chain of 5-hydroxytryptamine receptor 2B, HTR2B (h) (P41595 whole entry): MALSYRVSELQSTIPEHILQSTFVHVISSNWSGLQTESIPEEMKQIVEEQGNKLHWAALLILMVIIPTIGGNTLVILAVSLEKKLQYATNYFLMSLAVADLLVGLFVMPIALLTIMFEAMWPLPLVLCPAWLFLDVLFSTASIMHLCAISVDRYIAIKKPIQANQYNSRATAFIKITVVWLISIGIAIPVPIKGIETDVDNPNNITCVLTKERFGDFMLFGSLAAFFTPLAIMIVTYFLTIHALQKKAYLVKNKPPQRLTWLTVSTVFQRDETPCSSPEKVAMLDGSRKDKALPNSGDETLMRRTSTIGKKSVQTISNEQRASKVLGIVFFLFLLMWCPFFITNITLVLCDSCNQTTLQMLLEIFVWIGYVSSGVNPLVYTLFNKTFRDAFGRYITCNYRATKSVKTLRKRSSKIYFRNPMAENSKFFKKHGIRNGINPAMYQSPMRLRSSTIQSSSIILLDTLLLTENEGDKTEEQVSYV

[14] = target: Dopamine receptor D2, DRD2 (h) (Homo sapiens, UniProt P14416); settings: control 7-OH-DPAT
Chain of Dopamine receptor D2, DRD2 (h) (P14416 whole entry): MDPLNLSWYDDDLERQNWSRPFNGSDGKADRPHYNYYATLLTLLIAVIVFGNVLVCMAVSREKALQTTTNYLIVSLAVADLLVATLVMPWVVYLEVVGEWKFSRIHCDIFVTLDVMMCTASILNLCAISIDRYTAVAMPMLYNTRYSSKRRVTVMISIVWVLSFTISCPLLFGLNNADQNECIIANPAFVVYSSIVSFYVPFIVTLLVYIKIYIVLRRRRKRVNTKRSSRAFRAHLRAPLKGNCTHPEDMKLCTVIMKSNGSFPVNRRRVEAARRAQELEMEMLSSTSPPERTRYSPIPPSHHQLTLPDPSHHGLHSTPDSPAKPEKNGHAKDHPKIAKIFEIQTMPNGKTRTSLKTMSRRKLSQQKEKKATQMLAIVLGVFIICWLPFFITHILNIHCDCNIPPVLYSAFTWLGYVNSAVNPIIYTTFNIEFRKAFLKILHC

[15] = target: Mu-type opioid receptor, OPRM1 (h) (Homo sapiens, UniProt P35372); settings: control DAMGO
Chain of Mu-type opioid receptor, OPRM1 (h) (P35372 whole entry): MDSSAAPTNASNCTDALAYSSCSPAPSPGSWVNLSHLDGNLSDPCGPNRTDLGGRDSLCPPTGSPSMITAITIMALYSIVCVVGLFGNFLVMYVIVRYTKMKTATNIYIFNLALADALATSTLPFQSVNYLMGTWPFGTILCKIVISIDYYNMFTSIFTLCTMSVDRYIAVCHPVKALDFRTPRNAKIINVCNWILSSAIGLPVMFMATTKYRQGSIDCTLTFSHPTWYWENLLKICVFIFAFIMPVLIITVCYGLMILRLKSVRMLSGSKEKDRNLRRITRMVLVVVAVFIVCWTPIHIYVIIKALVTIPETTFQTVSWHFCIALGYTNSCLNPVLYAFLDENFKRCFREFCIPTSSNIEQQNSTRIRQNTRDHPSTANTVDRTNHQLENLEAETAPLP

[16] = target: Delta-type opioid receptor, OPRD1 (h) (Homo sapiens, UniProt P41143); settings: ligand/control DPDPE
Chain of Delta-type opioid receptor, OPRD1 (h) (P41143 whole entry): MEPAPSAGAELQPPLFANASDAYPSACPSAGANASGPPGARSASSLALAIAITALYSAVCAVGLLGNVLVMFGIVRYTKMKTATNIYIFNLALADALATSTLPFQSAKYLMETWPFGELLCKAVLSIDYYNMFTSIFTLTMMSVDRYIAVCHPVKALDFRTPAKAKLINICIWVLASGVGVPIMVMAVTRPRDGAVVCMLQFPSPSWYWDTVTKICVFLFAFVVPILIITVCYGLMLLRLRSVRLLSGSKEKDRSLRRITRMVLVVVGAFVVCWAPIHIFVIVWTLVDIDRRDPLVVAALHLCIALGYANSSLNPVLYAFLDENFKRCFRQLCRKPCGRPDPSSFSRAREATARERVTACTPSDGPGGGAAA

[17] = IPP screening at 10 uM, control (±)DOI

Row | Compound | Specific binding [1] [%] | Specific binding ([2]; IPP screening at 10 uM) [%] | Specific binding ([3]; IPP screening at 10 uM) [%] | IPP screening %, Specific binding [4] [%] | IPP screening %, Enzymatic activity [5] [%] | AC50 [6] [µM] | Specific binding ([7]; IPP screening at 10 uM) [%] | Specific binding ([8]; IPP screening at 10 uM) [%] | Specific binding ([9]; IPP screening at 10 uM) [%] | Specific binding ([10]; IPP screening at 10 uM) [%] | Specific binding ([11]; IPP screening at 10 uM) [%] | Specific binding ([12]; IPP screening at 10 uM) [%] | Specific binding [13, 17] [%] | Specific binding ([14]; IPP screening at 10 uM) [%] | Specific binding ([15]; IPP screening at 10 uM) [%] | IPP screening %, Specific binding ([16]; 10 uM) [%] | other results
1 | CCOP(=S)(OCC)Oc1nc(Cl)c(Cl)cc1Cl [Chlorpyrifos, O,O-Diethyl O-(3,5,6-trichloropyridin-2-yl) phosphorothioate] | 3.1 | 15.6 | -9.1 | 5.8 | 5.1 | 1.85 | 27.7 | -3.7 | 5.3 | 1.9 | -6.9 | -1.0 | 82.5 | 12.6 | 29.9 | 2.5 | 
2 | CC(C)(C)c1ccc(CCOc2ncnc3ccccc23)cc1 [Fenazaquin, 4-[2-(4-tert-Butylphenyl)ethoxy]quinazoline] | 8.2 | 47.1 | 4.6 | 11.5 | -0.2 | 2.86 | 56.7 | 5.2 | 16.5 | 4.5 | -6.4 | -0.1 | 77.1 | 16.5 | 16.1 | 46.9 | 
3 | CC1(C)O[C@@H]2[C@@H](CO[C@@]3(COS(N)(=O)=O)OC(C)(C)O[C@@H]23)O1 [Topiramate, [(3aS,5aR,8aR,8bS)-2,2,7,7-Tetramethyltetrahydro-2H,3aH,7H-bis[1,3]dioxolo[4,5-b:4',5'-d]pyran-3a-yl]methyl sulfamate (non-preferred name)] |  |  |  |  |  | 0.16 |  |  |  |  |  |  |  |  |  |  | Specific binding ([2]; IPP screening at 100 uM): 0.9%; Specific binding ([3]; IPP screening at 100 uM): 3.5%; Specific binding ([7]; IPP screening at 100 uM): 3.7%; Specific binding ([8]; IPP screening at 100 uM): -5.6%; Specific binding ([9]; IPP screening at 100 uM): -2.9%; Specific binding ([10]; IPP screening at 100 uM): -2.4%; Specific binding ([11]; IPP screening at 100 uM): 3.3%; Specific binding ([12]; IPP screening at 100 uM): -1.3%; Specific binding ([13]; IPP screening at 100 uM; control ±)DOI): -0.4%; Specific binding ([14]; IPP screening at 100 uM): 13.3%; Specific binding ([15]; IPP screening at 100 uM): 0.9%; IPP screening %, Specific binding ([16]; 100 uM): 2.3%
4 | (4S,4aR,5S,5aR,6S,12aS)-4-(Dimethylamino)-3,5,6,10,12,12a-hexahydroxy-6-methyl-1,11-dioxo-1,4,4a,5,5a,6,11,12a-octahydrotetracene-2-carboxamide--hydrogen chloride (1/1) [Oxytetracycline hydrochloride] | 0.8 | 7.5 |  |  | 0.7 |  | 7.3 | -1.4 | 7.5 | 1.4 | -2.5 | -6.5 | 5.9 | 22.7 | 3.3 | -5.6 | 
5 | mixture of 2- and 3-tert-butyl-4-methoxyphenol [Butylated Hydroxyanisole] | 6.7 | 2.8 | 2.8 | -7.7 | -0.4 |  | 13.5 | 1.5 | 6.3 | 3.5 | -5.0 | 15.3 | 80.6 | -16.2 | 7.1 | -2.3 | 
